Where two headings read alike, the source gives them in different places.
Columns and labels:
GIST-T1 cells [1] = test: Quantitative drug screen, CellTiter-Blue cell viability, GIST-T1; type: cell-based; conditions: read-out: IC50 GIST-T1; primary screen, 72 h, 10 μM to […] twofold dilutions; * = IC50 < 0.07 μM and drug showed no dose response
GIST-T1 cells [2] = test: Hit validation cell proliferation, 12-point dose-response, GIST-T1; type: cell-based
GIST 882 cells [3] = test: Hit validation cell proliferation, 12-point dose-response, GIST 882; type: cell-based; conditions: GIST 882, 1 μM, 72 hour
GIST T1-10R cells [4] = test: Hit validation cell proliferation, 12-point dose-response, GIST T1-10R; type: cell-based
[5] = system: reactive oxygen species (ROS); test: Intracellular ROS activity measurement; type: cell-based
phospho-c-KIT (Tyr719) = test: Western blot, phospho-c-KIT in GIST cells; type: cell-based
phospho-AKT (Ser473) = test: Western blot, phospho-AKT; type: cell-based; conditions: GIST 882 cells, all auranofin treatments, 6 h; site not specified
[6] = system: phospho-ERK1/2 (Thr202/Tyr204); test: Western blot, phospho-ERK1/2 in GIST cells; type: cell-based; conditions: for pERK1/2 level, fold change: GIST T1-10R cells, 6 hours
GIST-T1 cells [7] = test: Early apoptosis assay; type: cell-based; conditions: GIST-T1, 1 μM, 24 h, Annexin V
GIST T1-10R cells [8] = test: Early apoptosis assay; type: cell-based; conditions: 1 μM, 24 h, Annexin V
GIST 882 cells [9] = test: Early apoptosis assay; type: cell-based; conditions: GIST 882, 1 μM, 24 h, Annexin V
Caspase 3/7 = Caspase 3/7 activity assay in GIST cells; type: cell-based; conditions: 0.1 and 1 μM, 72 hours
[10] = system: thioredoxin reductase (TrxR); conditions: for TrxR activity: 6 h
[11] = GIST 882 cells, all auranofin treatments, 6 h

CC(=O)OC[C@H]1O[C@@H]([S-])[C@H](OC(C)=O)[C@@H](OC(C)=O)[C@@H]1OC(C)=O.CCP(CC)CC.[Au+] [Auranofin]
IC50 (GIST-T1 cells [1]): 230 nM | cell viability (GIST-T1 cells [2]; GIST-T1, 1 μM, 72 hour): decrease in cell viability | cell proliferation induced by low-dose treatment, fold (GIST-T1 cells [2]; GIST-T1, low-dose, 72 hour): 1.1–1.2 fold | IC50 (GIST-T1 cells [2]; read-out: IC50 GIST-T1, hit validation, 12-point 20 μM to 1 nM, triplicate, 72 h): 250 ± 150 nM | cell viability (GIST 882 cells [3]): decrease in cell viability | cell viability (GIST T1-10R cells [4]; GIST T1-10R, 1 μM, 72 hour): decrease in cell viability | cell proliferation induced by low-dose treatment, fold (GIST T1-10R cells [4]; GIST T1-10R, low-dose, 72 hour): 1.1–1.2 fold | IC50 (GIST T1-10R cells [4]; read-out: IC50 GIST T1-10R, hit validation, 12-point 20 μM to 1 nM, triplicate, 72 h): 20 ± 10 nM | ROS production, fold change ([5]; GIST 882 cells, 1 and 10 μM, 6 h): 1.5 fold | ROS, fold change vs vehicle-treated cells ([5]; GIST 882 cells, across all auranofin treatments): ~ 1.5 fold | ROS formation, fold change ([5]; GIST T1-10R cells, 1 and 10 μM, 6 h): 2.6 fold | ROS ([5]; all three GIST cell lines, 0.01 and 0.1 μM, 6 h): remained relatively stable | ROS production with longer treatment ([5]; all three GIST cell lines, longer treatment): induces higher production of ROS | phosphorylated level of cKIT (phospho-c-KIT (Tyr719); [11]): does not noticeably alter | p-cKT level, fold change (phospho-c-KIT (Tyr719); GIST-T1 cells, 1 or 10 μM, 6 hours): ~ 0.5 fold | phosphorylated level of AKT (phospho-AKT (Ser473)): does not noticeably alter | phosphorylated level of ERK [6, 11]: does not noticeably alter | pERK1/2 level, fold change ([6]; 0.01 μM): ~ 3.0 fold | pERK1/2 level, fold change ([6]; 0.1 μM): ~ 3.6 fold | pERK1/2 level, fold change ([6]; 1 μM): ~ 2.7 fold | pERK1/2 level, fold change ([6]; 010 μM): ~ 2.4 fold | fraction of early apoptotic cells, fold increase (GIST-T1 cells [7]): ~ 4 fold | fraction of early apoptotic cells, fold increase (GIST T1-10R cells [8]): ~ 2.8 fold | fraction of early apoptotic cells, fold increase (GIST 882 cells [9]): ~ 2.3 fold | Caspase 3/7 activity (Caspase 3/7): able to increase | TrxR activity ([10]; GIST T1-10R cells, 0.01 and 0.1 μM): significant decrease | TrxR activity ([10]; all three GIST cell lines, 1.0 and 10 μM): dramatically reduces | TrxR enzymatic activity ([10]; exposure up to 24 hours at 1 μM): inhibited

Source: article PMC3707936 (Molecular cancer therapeutics, 2013)
